Assay results taken from patent US20110098219A1, “System for Curing Hepatic Cancer with Leptin” (KAOHSIUNG MEDICAL UNIVERSITY, priority 2009, published 2011).

Key:
liver cancer cells = assay: Flow cytometry, cell cycle of liver cancer cells; type: cell-based; conditions: MPA only, 24 hours
Description: Please refer to FIG. 6A and FIG. 6B, which are views showing effect of MPA+leptin on cell cycle. As shown in the figures, for further recognizing role of MPA+leptin for liver cancer cells, the preferred embodiment applies leptin only, MPA only and MPA+leptin on liver cancer cells for 24 hours and a flow cytometry is used to show their effects on cell cycle. Furthermore, sub-G1/apoptosis parts in the cell cycle are analyzed through student's t-test.

JAK/STAT path = assay: Western blotting of JAK/STAT path proteins in liver cancer cells; type: cell-based; conditions: 24 hours
Description: Please refer to FIG. 11, which is a view showing expression of JAK/STAT path after applied with a drug. As shown in the figure, the preferred embodiment analyzes related proteins of liver cancer cells through western blotting after applied with MPA+leptin for 24 hours.
Please refer to FIG. 13A and FIG. 13A, which are views showing expressions of proteins of JAK/STAT path and proteins of MAPK path after applied with a drug for a short time. As shown in the figures, the preferred embodiment processes liver cancer cells with high-dose leptin, high-dose MPA and high-dose leptin combined with high-dose MPA for 30 minutes. Then, related JAK/STAT proteins are collected for analyzing their expressions through western blotting.
Please refer to FIG. 14, which is a view showing reduced p-STAT3 degradation by suppressing the ERK1/2 activation and the PIAS3 expression. […] The preferred embodiment uses a 10^−6M p-ERK1/2 inhibitor (U0126) for 4 hours before a drug is applied; then, liver cancer cells are applied with the drug of MPA+leptin for 3 hours to collect cellular proteins for analyzing expression of related proteins through western blotting. […] As a conclusion, MPA activates ERK1/2 to indirectly induce PIAS3 expression for suppressing p-STAT3 (Tyr705) for cell apoptosis, where leptin enhances activation of ERK1/2 with MPA for increasing cell apoptosis.
Please refer to FIG. 15A to FIG. 16B, which are views showing cells containing very much leptin within; suppressed growth of the cells by using MPA; and STAT3- and MAPK-signal paths of the cells after MPA is applied. […] Then, after the cells are processed with 10^−4M MPA for 24 hours, cell growth is analyzed through XTT assay. […] Then, after the cells are processed with 10^−4 M MPA for 24 hours, JAK/STAT-related proteins are analyzed through western blotting.

CC(=O)O[C@]1(C(C)=O)CC[C@H]2[C@@H]3C[C@H](C)C4=CC(=O)CC[C@]4(C)[C@H]3CC[C@@]21C [MPA, medroxyprogesterone acetate]
G1 and G2/M (liver cancer cells): decreased trend
S (liver cancer cells): increased trend
sub-G1 (liver cancer cells): increasing trend
p-ob-R, ob-R and PgR expression (JAK/STAT path): suppresses
activation of STAT3 compared with cells without much leptin (JAK/STAT path; pcLeptin-transfected cells, 10^-4 M MPA): more obviously suppressed
